This is an account of results in patent publication US7691844B2, “Nonpeptide substituted spirobenzoazepines as vasopressin antagonists” (Ortho-McNeil Pharmaceutical, Inc., priority 2000, dated 2010).

Test [1] addresses T1, V1a (Homo sapiens, UniProt P37288). In words: In-vitro receptor binding assay (3H-arginine-8-vasopressin), V1a. The essentials: (§1)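 Radioligand is 3H-arginine-8-vasopressin, incubated with receptor for one hour at room temperature, then filtered on GF/C plates and counted by scintillation. Non-specific binding was defined with 1.25 μM vasopressin, and results are given as % inhibition.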

In test [2] the target is T1, V1a. In words: V1a vasopressin receptor functional activity (inhibition of vasopressin-induced intracellular calcium, FLIPR, V1a-HEK cells). To be noted: HEK-293 cells transfected with human V1a receptor; vasopressin challenge. The test is classed as cell-based. Also noted: expressed in transfected cells. The procedure:
[formula] (B) V1a Vasopressin Receptor Functional Activity
The V1a receptor is a G-protein coupled receptor, which upon activation triggers an increase in intracellular calcium mobilization. To evaluate compounds for their functional V1a receptor activity, HEK-293 cells were transfected with the human V1a receptor (V1a-HEK cells). HEK-293 cells were grown in DMEM (Dulbecco's modified Eagle Media) supplemented with 10% FBS and glutamine. HEK-cells were passed biweekly by trypsinization and seeded into 96 well plates at 33,000 cells per well. HEK-293 cells were transfected with human V1a receptor DNA using DMRIE-C reagent from Life Technologies. Stable lines were generated by selecting cells grown in culture media containing geneticin. After growing in Packard Clear-View black 96 well plates for 4-6 days, V1a-HEK cells were loaded with the calcium-sensitive fluorescence dye, FLUO-3 AM. Changes in cell fluorescence were quantitated using FLIPR (Fluorometric Imaging Plate Reader; Molecular Devices, Sunnyvale, Calif.). Test compounds were first added to the cells and the resulting changes in fluorescence measured to detect receptor agonistic activity. Five minutes later the cells were challenged with vasopressin to test compounds for their antagonistic activity. Receptor antagonists inhibit the ability of vasopressin to stimulate increases in intracellular fluorescence. IC50's were calculated.
(Calcium assays in cells follow changes in intracellular calcium, usually with a dye or a luminescent sensor.)

The next test deals with human V2 receptor (Homo sapiens, UniProt P30518). In words: In-vitro receptor binding assay (3H-arginine-8-vasopressin), V2. A digest of the protocol: as §1
Chain of human V2 receptor (P30518 whole entry): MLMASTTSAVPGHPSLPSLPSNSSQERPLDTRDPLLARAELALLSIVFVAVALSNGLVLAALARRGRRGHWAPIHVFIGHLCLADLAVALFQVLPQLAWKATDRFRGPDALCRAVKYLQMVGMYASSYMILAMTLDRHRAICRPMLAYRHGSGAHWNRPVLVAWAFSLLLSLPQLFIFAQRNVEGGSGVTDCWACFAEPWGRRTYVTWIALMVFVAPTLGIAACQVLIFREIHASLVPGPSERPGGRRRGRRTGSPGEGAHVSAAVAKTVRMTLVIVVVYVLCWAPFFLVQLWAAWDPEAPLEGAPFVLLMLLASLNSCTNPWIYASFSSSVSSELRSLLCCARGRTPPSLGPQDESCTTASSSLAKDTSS
Where [3] appears, read: read-out: Receptor Binding V2 (% Inh. @ concentration in μM).
[4] abbreviates: @ 1 μM, read-out: Receptor Binding V2 (% Inh. @ concentration in μM).
Setting [5] is: read-out: Receptor Binding V1a (% Inh. @ concentration in μM).

T1 sequence (P37288 whole entry): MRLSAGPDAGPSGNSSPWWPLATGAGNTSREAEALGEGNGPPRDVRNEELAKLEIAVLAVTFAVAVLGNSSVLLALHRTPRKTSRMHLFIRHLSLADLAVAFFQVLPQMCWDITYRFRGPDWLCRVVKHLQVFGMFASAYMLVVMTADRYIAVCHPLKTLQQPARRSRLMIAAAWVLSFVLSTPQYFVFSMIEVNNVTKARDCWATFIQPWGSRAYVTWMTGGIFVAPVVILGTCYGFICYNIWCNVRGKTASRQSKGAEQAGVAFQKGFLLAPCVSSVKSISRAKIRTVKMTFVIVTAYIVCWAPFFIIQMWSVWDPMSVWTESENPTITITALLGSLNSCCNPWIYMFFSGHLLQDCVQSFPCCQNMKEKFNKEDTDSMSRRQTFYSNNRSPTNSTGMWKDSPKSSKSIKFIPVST

As a reminder, the IC50 is the point on the concentration scale where inhibition reaches its midpoint. Take `O=C(Nc1ccc(C(=O)N2CCC3(C=C(CO)CC3)Cc3ccccc32)cc1)c1ccccc1-c1ccccc1` (stereo not shown) [Compound 1, 4-(2-Phenylbenzoyl-4-aminobenzoyl)-3′-(hydroxymethyl)-4-aza-[6,4]-spiro-[5,6]-benzoundec-2′-ene]: the concentration for half-maximal inhibition (IC50) on V1a [1] was 0.009 µM; at V1a [2], under 0.01 µM; on human V2 receptor, 0.018 µM.
Regarding `CNCC1=CC2(CC1)CCN(C(=O)c1ccc(NC(=O)c3ccccc3-c3ccccc3)cc1)c1ccccc1C2` (stereo not shown) [Compound 3, 4-(2-Phenylbenzoyl-4-aminobenzoyl)-3′-(methylaminomethyl)-4-aza-[6,4]-spiro-[5,6]-benzoundec-2′-ene], the IC50 is 0.009 µM on V1a [1], under 0.01 µM on V1a [2] and 0.018 µM at human V2 receptor.
As to `O=C(O)C1=CC2(CC1)CCN(C(=O)c1ccc(NC(=O)c3ccccc3-c3ccccc3)cc1)c1ccccc1C2` (stereo not shown) [Compound 4, 4-(2-Phenylbenzoyl-4-aminobenzoyl)-3′ (carboxyl)-4-aza-[6,4]-spiro-[5,6]-benzoundec-2′-ene], the values for the IC50 at V1a [1], on V1a [2] and at human V2 receptor were 0.037 µM, 0.02 µM and 0.014 µM, respectively.
With `CC(=O)N(C)CC1=CC2(CC1)CCN(C(=O)c1ccc(NC(=O)c3ccccc3-c3ccccc3)cc1)c1ccccc1C2` (stereo not shown) [Compound 5, 4-(2-Phenylbenzoyl-4-aminobenzoyl)-3′-(N-methyl-N-acetylaminomethyl)-4-aza-[6,4]-spiro-[5,6]-benzoundec-2′-ene], the IC50 on V1a [1] was 0.02 µM; at V1a [2], under 0.01 µM; at human V2 receptor, 0.022 µM.
As to `O=C(NCCO)C1=CC2(CC1)CCN(C(=O)c1ccc(NC(=O)c3ccccc3-c3ccccc3)cc1)c1ccccc1C2` (stereo not shown) [Compound 6], the results for the IC50 on V1a [1], on V1a [2] and on human V2 receptor were 0.006 µM, 0.005 µM and 0.011 µM, respectively.
For `Cc1ccc(F)cc1C(=O)Nc1ccc(C(=O)N2CCC3(C=C(C(=O)NCCN(C)C)CC3)Cc3ccccc32)cc1` (stereo not shown) [Compound 13], in that order: 0.005 µM, 0.07 µM and 0.018 µM.
For the compound `Cc1ccc(F)cc1C(=O)Nc1ccc(C(=O)N2CCC3(C=C(C(=O)NCCCN(C)C)CC3)Cc3ccccc32)cc1` (stereo not shown) [Compound 14], the IC50 at V1a [1] was found to be 0.005 µM; at V1a [2] it was 0.059 µM; on human V2 receptor it was 0.023 µM.
On to `COC(=O)CNCC1=CC2(CC1)CCN(C(=O)c1ccc(NC(=O)c3cc(F)ccc3C)cc1)c1ccccc1C2` (stereo not shown) [Compound 15], for which the half-inhibitory concentration (IC50) at V1a [1] is 0.007 µM; on V1a [2] it was 0.135 µM; at human V2 receptor it was 0.1 µM.
As for `O=C(NCCN1CCOCC1)C1=CC2(CC1)CCN(C(=O)c1ccc(NC(=O)c3ccccc3F)cc1)c1ccccc1C2` (stereo not shown) [Compound 17], the IC50 stood at 0.014 µM on V1a [1] and 0.227 µM at V1a [2]. In addition, the inhibition at 0.1 µM at human V2 receptor (setting [3]) was 18%.
In the same order, the values of `O=C(NCCN1CCCCC1)C1=CC2(CC1)CCN(C(=O)c1ccc(NC(=O)c3ccccc3F)cc1)c1ccccc1C2` (stereo not shown) [Compound 18] are 0.007 µM, 0.95 µM and 23%.
As for `CCNc1ccc(C(=O)N2CCC3(CCCCC3)Cc3ccccc32)cc1` [Compound 26], the concentration for half-maximal inhibition (IC50) on V1a [1] was found to be 0.16 µM; at V1a [2], 0.105 µM; on human V2 receptor it was 10 µM.
In the case of `O=C(Nc1ccccc1)c1ccc(C(=O)N2CCCC3(C=CCCC3)c3ccccc32)cc1` (stereo not shown) [Compound 27], the IC50 was determined as 0.1 µM on V1a [1], 0.008 µM on V1a [2] and 0.27 µM at human V2 receptor.
For `N#Cc1ccc(C(=O)N2CCC3(C=CCCC3)Cc3ccccc32)cc1` (stereo not shown) [Compound 33], the IC50 is 0.13 µM on V1a [1] and over 1 µM on V1a [2].
On to `COc1ccc(C(=O)N2CCC3(C=CCCC3)Cc3ccccc32)cc1` (stereo not shown) [Compound 37], for which the IC50 was 0.11 µM on V1a [1] and 0.096 µM on V1a [2]. Besides, at human V2 receptor (@ 10 μM), the “Receptor Binding V2 (% Inh. @ concentration in μM)” value is recorded as 37% @ 10.
On to `O=C(c1ccc(Cl)c(Cl)c1)N1CCC2(C=CCCC2)Cc2ccccc21` (stereo not shown) [Compound 48], for which the inhibition at 10 µM at V1a [1] (@ 10 μM, read-out: Receptor Binding V1a (% Inh. @ concentration in μM)) amounted to 33%; on human V2 receptor (@ 10 μM, read-out: Receptor Binding V2 (% Inh. @ concentration in μM)) it was 16%. Moreover, the IC50 at V1a [2] is over 1 µM.
On to `CCCCOc1ccc(C(=O)N2CCC3(C=CCCC3)Cc3ccccc32)cc1` (stereo not shown) [Compound 53], for which the half-inhibitory concentration (IC50) on V1a [1] was 0.06 µM; at V1a [2], 0.104 µM; at human V2 receptor, 8 µM.
For the compound `COC(=O)c1ccc(C(=O)N2CCC3(C=CCCC3)Cc3ccccc32)cc1` (stereo not shown) [Compound 54, 4-(4-Carbomethoxybenzoyl)-4-aza-[6,5]-spiro-[5,6]-benzododec-2′-ene], the IC50 on V1a [1] was found to be 0.33 µM; on V1a [2], 0.067 µM; at human V2 receptor, 10 µM.
In the same order, the values of `O=C(Nc1ccc(C(=O)N2CCC3(C=CCCC3)Cc3ccccc32)cc1)c1ccccc1-c1ccccc1` (stereo not shown) [Compound 66, 4-(2-Phenylbenzoyl-4-aminobenzoyl)-4-aza-[6,5]-spiro-[5,6]-benzododec-2′-ene] are 0.83 µM, 0.025 µM and 0.19 µM.
Consider `Cc1ccccc1C(=O)Nc1ccc(C(=O)N2CCC3(C=CCCC3)Cc3ccccc32)cc1` (stereo not shown) [Compound 69], for which the results for the IC50 on V1a [1], on V1a [2] and on human V2 receptor were 0.01 µM, 0.14 µM and 0.07 µM, respectively.
In turn, `CN(C)CCNC(=O)C1=C[C@@]2(CC1)CCN(C(=O)c1ccc(N)cc1)c1ccccc1C2` [Compound 192] displayed an IC50 at V1a [1] of 5.4 µM. Moreover, on human V2 receptor (setting [4]), the inhibition at 1 µM is 0%.
Take `CN(C)CCNC(=O)C1=CC2(CC1)CCN(C(=O)c1ccc(N)cc1)c1ccccc1C2` (stereo not shown) [Compound 193]: the IC50 at V1a [1] was 1.1 µM. Besides, the “Receptor Binding V2 (% Inh. @ concentration in μM)” value on human V2 receptor (@ 1 μM) came out at 0% @ 1.
Take `COc1cc(N)ccc1C(=O)N1CCC2(C=C(C(=O)NCCN(C)C)CC2)Cc2ccccc21` (stereo not shown) [Compound 194]: the inhibition at 1 µM at V1a [1] (@ 1 μM, read-out: Receptor Binding V1a (% Inh. @ concentration in μM)) came out at 7%; on human V2 receptor (setting [4]), 6%.
Regarding `COc1cc(-n2ccc(C=O)c2)ccc1C(=O)N1CCC2(C=C(C(=O)NCCN(C)C)CC2)Cc2ccccc21` (stereo not shown) [Compound 195], the IC50 at V1a [1] stood at 0.3 µM. Also, on human V2 receptor (setting [4]), the inhibition at 1 µM is 18%.
In the case of `COc1cc(-n2ccc(CO)c2)ccc1C(=O)N1CCC2(C=C(C(=O)NCCN(C)C)CC2)Cc2ccccc21` (stereo not shown) [Compound 196], the IC50 at V1a [1] was 0.034 µM. Moreover, the inhibition at 1 µM on human V2 receptor (setting [4]) is 34%.
For the compound `COc1cc(C(=O)N2CC[C@]3(C=C(C(=O)NCCN(C)C)CC3)Cc3ccccc32)ccc1-n1ccc(CO)c1` [Compound 197], the IC50 on V1a [1] stood at 0.006 µM. For the same compound, the inhibition at 0.1 µM on human V2 receptor (setting [3]) stood at 0%.
On to `COc1cc(C(=O)N2CC[C@@]3(C=C(C(=O)NCCN(C)C)CC3)Cc3ccccc32)ccc1-n1ccc(CO)c1` [Compound 198], for which the IC50 at V1a [1] came to 0.016 µM. Besides, the inhibition at 0.1 µM at human V2 receptor (setting [3]) was 0%.
As to `O=C(O)c1ccn(-c2ccc(C(=O)N3CCC4(C=CCCC4)Cc4ccccc43)cc2)c1` (stereo not shown) [Compound 199], the inhibition at 0.1 µM at V1a [1] (setting [5]) was found to be 0%; at human V2 receptor (setting [3]), 2%.
Turning to `CN(C)CCNC(=O)C1=CC2(CC1)CCN(C(=O)c1ccc(-n3ccc(C=O)c3)cc1)c1ccccc1C2` (stereo not shown) [Compound 201], the inhibition at 0.1 µM came to 44% on V1a [1] (setting [5]) and 0% on human V2 receptor (setting [3]).
Compound `Cc1ccn(-c2ccc(C(=O)N3CCC4(C=C(C(=O)NCCN(C)C)CC4)Cc4ccccc43)cc2)n1` (stereo not shown) [Compound 209] came in with an IC50 on V1a [1] of 0.055 µM. The inhibition at 1 µM on human V2 receptor (setting [4]) came to 43%.
For the compound `CON(C)Cc1ccn(-c2ccc(C(=O)N3CCC4(C=C(C(=O)NCCN(C)C)CC4)Cc4ccccc43)cc2)c1` (stereo not shown) [Compound 210], the inhibition at 0.125 µM on V1a [1] (setting [5]) was 6%. Besides, the inhibition at 1 µM on human V2 receptor (setting [4]) is 22%.
As to `COC(=O)C1=CC2(CC1)CCN(C(=O)c1ccc(-n3ccc(C)n3)c(N)c1)c1ccccc1C2` (stereo not shown) [Compound 211], the inhibition at 0.125 µM on V1a [1] (setting [5]) was determined as 55%. Also, on human V2 receptor (setting [4]), the inhibition at 1 µM was determined as 45%.
Turning to `COC(=O)C1=CC2(CC1)CCN(C(=O)c1ccc(-n3nccc3C)c(N)c1)c1ccccc1C2` (stereo not shown) [Compound 212], the inhibition at 0.125 µM at V1a [1] (setting [5]) came to 29%. On human V2 receptor (setting [4]), the inhibition at 1 µM is 16%.
For `COC(=O)C1=CC2(CC1)CCN(C(=O)c1ccc(-n3ccc(C)n3)c(N(C)C)c1)c1ccccc1C2` (stereo not shown) [Compound 213], in that order: 63% and 55%.
`COC(=O)C1=CC2(CC1)CCN(C(=O)c1ccc(NC(=O)c3cc(F)ccc3F)cc1)c1ccccc1C2` (stereo not shown) [Compound 218]: the IC50 at V1a [1] is 0.046 µM. Further, the inhibition at 0.2 µM at human V2 receptor (@ 0.2 μM, read-out: Receptor Binding V2 (% Inh. @ concentration in μM)) is 23%.
For the compound `CC(=O)N1CCC(Oc2ccc(C(=O)N3CCC4(C=CCCC4)Cc4ccccc43)cc2)CC1` (stereo not shown) [Compound 224, 4-(4-(N-acetylpiperidin-4-yloxy)benzoyl)-4-aza-[6,5]-spiro-[5,6]-benzododec-2′-ene], the inhibition at 0.1 µM at V1a [1] (setting [5]) amounted to 41%. The “Receptor Binding V2 (% Inh.)” value at human V2 receptor (concentration not given) amounted to 0%.
